# According to patent publication US10160771B2, “Hepatitis C virus inhibitors and uses thereof in preparation of drugs” (priority 2014, dated 2018):
# Assays:
# [1] = tested on: HCV genotype 1a (HCV-1a) replicon cells; assay: HCV genotype 1a replicon luciferase assay (EC50); format: cell-based, hepatitis C virus genotype 1a (H77 clone); settings: 3 days, luciferase (Bright-Glo)
# Summary of the method: (§1)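 Stable subgenomic replicon cells (1a: H77 with K1691R, K2040R, S2204I; 1b: Con1 with E1202G, T1280I, K1846T) carrying luciferase and neo were seeded at 8000 cells/well onto compounds (5-fold, 6-point, top 100, 10 or 1 nM; 0.5% DMSO) for 3 days at 37 °C. Bright-Glo luminescence gave EC50 by nonlinear fit.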
# [2] = tested on: HCV genotype 1b (HCV-1b) replicon cells; assay: HCV genotype 1b replicon luciferase assay (EC50); format: cell-based, hepatitis C virus genotype 1b (Con1 clone); settings: 3 days, luciferase (Bright-Glo)
# Summary of the method: as §1
# [3] = Cell Titer-fluor cell activity assay in HCV-1b replicon cells (CC50); format: cell-based
# Description: The EC50 and CC50 values of anti-HCV compounds were determined by HCV genotype 1a (HCV-1a) and 1B (HCV-1b) stable transfer replication (replicon) cells. The source of genotype 1a replicon is H77 clones containing K1691R, K2040R and S2204I adaptive mutations. The source of genotype 1b replicon is Con1 clones containing E1202G, T1280I and K1846T adaptive mutations.
# HCV Replicon Cell Lines: HCV-1a and HCV-1b Cells
# The compound powder was dissolved in 100% DMSO. Then the compound was diluted 5 times with 6 points, and added into the cell plate with Echo liquid handler. Ensure the final concentration of DMSO was 0.5%. Each compound was tested in double holes. Maximum initial concentration was 100, 10 or 1 nM, 5 times dilution, 6 points.
# b) Cell Culture (HCV-1a or HCV-1b Replicon Cell):
# 1) absorbing the culture supernatant of the cell culture and washing the cells with 10 mL PBS.
# 2) adding preheated pancreatin to the washed cell culture flasks, rotating culture bottle to make the bottom of the culture bottle uniformly covered by pancreatin, then placed into 37° C., 5% CO2 incubator to digest.
# 3) suspending cells in each T150 culture flask with 10-15 mL culture medium, absorbing 0.1 mL liquid and diluting 2 times by trypan blue solution as counted.
# 4) diluting cells to 8×10^4/mL with the culture medium, adding the diluted cells into the compound-containing 96-well plate (Greiner, Cat.#655090) (100 μL/well, 8000 cells/well) with automatic liquid separator (Thermo Scientific). Then place into a 37° C., 5% CO2 incubator for 3 days. Cell control well: no compound, only containing 0.5% DMSO.
# 5) adding chemiluminescent substrate Cell Titer-fluor to the cell well, after incubation for 30 minutes, detecting the signal by chemiluminescence detection system Envison (Ex at 405 nm and read at 515 nm). The effect of the compounds on the activity of HCV replicon cells was analyzed according to the luminescence data, which was used to calculate the CC50 values.
# The EC50 or CC50 values were obtained by nonlinear fitting analysis on inhibition percentage (inh %) data with GraphPad Prism software.
SMILES,"EC50 ([1]; Hepatitis C virus, 72 h) [nM]","EC50 ([2]; Hepatitis C virus, 72 h) [nM]",CC50 at 3 days [3] [nM],EC50 [1] [nM],EC50 [2] [nM]
COC(=O)N[C@H](C(=O)N1CCC[C@H]1c1ccc(-c2ccc(-c3ccc(-c4cnc([C@@H]5CC6(CN5C(=O)[C@H](NC(=O)OC)C(C)C)OCC(C)(C)CO6)[nH]4)cc3)cc2)[nH]1)C(C)C [AG_076],10 to 100,0.001 to 0.1,> 5,,
COC(=O)N[C@H](C(=O)N1CCCC1c1ncc(-c2ccc(-c3ccc(-c4cnc([C@@H]5C6CCC(C6)C5C(=O)NCc5cccnc5)[nH]4)cc3)c(F)c2)[nH]1)[C@@H](C)OC (stereo partly drawn) [AA_280_A],1 to 10,0.001 to 0.1,> 1,,
COC(=O)N[C@H](C(=O)N1CCC[C@H]1c1ncc(-c2ccc(-c3ccc(-c4cnc([C@@H]5[C@H]6CC[C@H](C6)[C@H]5C(=O)NCc5nccs5)[nH]4)cc3)cc2)[nH]1)C(C)C [AA_208_ENDOA2],0.101 to 1,0.001 to 0.1,> 1,,
COC(=O)N[C@H](C(=O)N1CCCC1c1ccc(-c2ccc(-c3ccc(-c4ccc(C5CCCN5C(=O)[C@@H](NC(=O)OC)C(C)C)[nH]4)cc3)cc2)[nH]1)C(C)C (stereo partly drawn) [AG_011],10 to 100,0.001 to 0.1,> 1,,
COC(=O)N[C@H](C(=O)N1CCC[C@H]1c1ncc(-c2ccc(-c3ccc(-c4cnc([C@H]5C6CCC(C6)[C@@H]5C(=O)NCc5cccs5)[nH]4)cc3)cc2)[nH]1)C(C)C (stereo partly drawn) [AA_196_A],1 to 10,0.001 to 0.1,> 1,,
COC(=O)N[C@H](C(=O)N1CCC[C@H]1c1ncc(-c2ccc(-c3ccc(-c4cnc([C@H]5C6CCC(C6)[C@@H]5C(=O)NCc5cccc(N)c5)[nH]4)cc3)cc2)[nH]1)C(C)C (stereo partly drawn) [AA_199_A],1 to 10,0.001 to 0.1,> 1,,
COC(=O)N[C@H](C(=O)N1CCC[C@H]1c1ncc(-c2ccc(-c3ccc(-c4cnc(C5CCCC[C@H]5C(=O)NCc5cccnc5)[nH]4)cc3)cc2)[nH]1)C(C)C (stereo partly drawn) [AA_113],1 to 10,0.101 to 1,> 10,,
COC(=O)N[C@H](C(=O)N1CCC[C@H]1c1ncc(-c2ccc(-c3ccc(-c4cnc(C5C6CCC(C6)[C@@H]5C(=O)NCc5cccnc5)[nH]4)cc3)cc2)[nH]1)[C@@H](C)OC (stereo partly drawn) [AA_179_B],1 to 10,0.001 to 0.1,> 1,,
COC(=O)N[C@H](C(=O)N1CCC[C@H]1c1ncc(-c2ccc(-c3ccc(-c4cnc([C@H]5C6CCC(C6)[C@@H]5C(=O)NCc5ccc(C(C)C)nc5)[nH]4)cc3)cc2)[nH]1)C(C)C (stereo partly drawn) [AA_236_A],10 to 100,0.001 to 0.1,> 1,,
COC(=O)N[C@H](C(=O)N1CCC[C@H]1c1ncc(-c2ccc(-c3ccc(-c4[nH]c([C@H]5CCCN5C(=O)[C@@H](NC(=O)OC)C(C)OC)c5c4COC5)cc3)cc2)[nH]1)C(C)C (stereo partly drawn) [AG_079_B],1 to 10,0.101 to 1,> 5,,
CNC(=O)[C@@H](NC(=O)[C@@H]1[C@@H]2CC[C@@H](C2)[C@H]1c1ncc(-c2ccc(-c3ccc(-c4cnc([C@@H]5CCCN5C(=O)[C@@H](NC(=O)OC)C(C)C)[nH]4)cc3)cc2)[nH]1)C(C)C [AA_298_ENDOA2],1 to 10,0.001 to 0.1,> 1,,
COC(=O)N[C@H](C(=O)N1CCC[C@H]1c1ncc(-c2ccc(-c3ccc(-c4[nH]c([C@@H]5CCCN5C(=O)[C@@H](NC(=O)OC)C(C)C)c5c4OCC5)cc3)cc2)[nH]1)C(C)C [AG_122_A],,,> 1,1 to 10,0.001 to 0.1
COC(=O)N[C@H](C(=O)N1CCC[C@H]1c1ccc(-c2ccc(-c3ccc(-c4cnc([C@@H]5CCCN5C(=O)[C@@H](NC(=O)OC)[C@@H](C)OC)[nH]4)cc3)cc2)[nH]1)C(C)C [AG_061_A],0.101 to 1,0.001 to 0.1,> 1,,
COC(=O)N[C@H](C(=O)N1CCC[C@H]1c1ccc(-c2ccc(-c3ccc(-c4cnc([C@@H]5CC6(CC6)CN5C(=O)[C@@H](NC(=O)OC)[C@@H](C)OC)[nH]4)cc3)cc2)[nH]1)[C@@H](C)OC [AG_115],0.101 to 1,0.001 to 0.1,> 1,,
COC(=O)N[C@H](C(=O)N1CCC[C@H]1c1ncc(-c2ccc(-c3ccc(-c4cnc([C@H]5C6CCC(C6)[C@@H]5C(=O)NCc5ccc(N)cc5)[nH]4)cc3)cc2)[nH]1)[C@@H](C)OC (stereo partly drawn) [AA_227],10 to 100,0.101 to 1,> 1,,
COC(=O)N[C@H](C(=O)N1CCC[C@H]1c1ncc(-c2ccc(-c3ccc(-c4cnc([C@H]5C6CCC(C6)[C@@H]5C(=O)NCc5ccc(F)nc5)[nH]4)cc3)cc2)[nH]1)C(C)C (stereo partly drawn) [AA_214_A],1 to 10,0.001 to 0.1,> 1,,
COC(=O)N[C@H](C(=O)N1CCC[C@H]1c1ncc(-c2ccc(-c3ccc(-c4cnc(C5CC(F)(F)C[C@H]5C(=O)N(NC(=O)OC)C(C)C)[nH]4)cc3)cc2)[nH]1)C(C)C (stereo partly drawn) [AA_138],10 to 100,1 to 10,> 100,,
COC(=O)N[C@H](C(=O)N1CCC[C@H]1c1ncc(-c2ccc(-c3ccc(-c4cnc([C@@H]5C6CCC(C6)[C@H]5C(=O)NCc5cccnc5C(C)C)[nH]4)cc3)cc2)[nH]1)C(C)C (stereo partly drawn) [AA_215_B],10 to 100,0.001 to 0.1,> 1,,
COC(=O)N[C@H](C(=O)N1CCC[C@H]1c1ncc(-c2ccc(-c3ccc(-c4cnc(C5C6CCC(C6)[C@@H]5C(=O)NCc5ccc(OC)nc5)[nH]4)cc3)cc2)[nH]1)[C@@H](C)OC (stereo partly drawn) [AA_223_B],10 to 100,0.101 to 1,> 1,,
COC(=O)N[C@H](C(=O)N1CCC[C@H]1c1ncc(-c2ccc(-c3ccc(-c4cnc([C@H]5C6CCC(C6)[C@@H]5C(=O)NCc5cccnc5C(F)(F)F)[nH]4)cc3)cc2)[nH]1)C(C)C (stereo partly drawn) [AA_216_A],10 to 100,0.001 to 0.1,> 1,,
COC(=O)N[C@H](C(=O)N1CCC[C@H]1c1ncc(-c2ccc(-c3ccc(-c4cnc(C5C6CCC(C6)[C@@H]5C(=O)NCc5cccnc5SC)[nH]4)cc3)cc2)[nH]1)[C@@H](C)OC (stereo partly drawn) [AA_259_A],10 to 100,0.001 to 0.1,> 1,,
COC(=O)N[C@H](C(=O)N1CCC[C@H]1c1ncc(-c2ccc(-c3ccc(-c4cnc([C@@H]5C6CCC(C6)[C@H]5C(=O)N(C)c5ccccn5)[nH]4)cc3)cc2)[nH]1)C(C)C (stereo partly drawn) [AA_195_B],1 to 10,0.001 to 0.1,> 1,,
COC(=O)N[C@H](C(=O)N1CCC[C@H]1c1ncc(-c2ccc(-c3ccc(-c4cnc(C5C6CCC(C6)[C@H]5C(=O)NCCO)[nH]4)cc3)cc2)[nH]1)[C@@H](C)OC (stereo partly drawn) [AA_220_A],10 to 100,0.101 to 1,> 1,,
COC(=O)N[C@H](C(=O)N1CCC[C@H]1c1ncc(-c2ccc(-c3ccc(-c4[nH]c([C@@H]5CCCN5C(=O)[C@@H](NC(=O)OC)[C@@H](C)OC)c5c4CCCC5)cc3)cc2)[nH]1)C(C)C [AG_078_A],10 to 100,0.001 to 0.1,> 5,,
COC(=O)N[C@H](C(=O)N1CCC[C@H]1c1ncc(-c2ccc(-c3ccc(-c4[nH]c([C@@H]5CCCN5C(=O)[C@@H](NC(=O)OC)[C@@H](C)OC)c5c4COC5)cc3)cc2)[nH]1)[C@@H](C)O [AG_105],0.101 to 1,0.001 to 0.1,> 1,,
COC(=O)N[C@H](C(=O)N1CCC[C@H]1c1ncc(-c2ccc(-c3ccc(-c4cnc(C5C6CCC(C6)[C@H]5C(=O)NCc5nccs5)[nH]4)cc3)cc2)[nH]1)[C@@H](C)OC (stereo partly drawn) [AA_219_A],1 to 10,0.001 to 0.1,> 1,,
